# Measurements as given in patent US20140005165A1, “SUBSTITUTED 3-AZABICYCLO[3.1.0]HEXANE DERIVATIVES USEFUL AS CCR2 ANTAGONISTS” (priority 2011, published 2014).
# Molecular target: T1, human CCR2 (Homo sapiens, UniProt P41597)
# T1 construct: expressed in transfected cells; host or cells: Ba/F3 cells (membrane preparation)
# Assay: CCR2 Membrane Binding Assay (SPA radio-ligand binding, 125I-rhMCP-1)
# Conditions: membranes from Ba/F3 cells transfected with human CCR2; 0.03 nM 125I-rhMCP-1; 4 h room temperature
# Protocol: The radio-ligand binding assay was done using scintillation proximity assay (SPA) technology. Briefly, membranes (1 μg per assay point) from Ba/F3 cells transfected with human CCR2, and wheat germ agglutinin-coated SPA beads (80 μg per point; Amersham, Arlington Heights, Ill.), were pre-incubated for 30 min at room temperature in CCR2 buffer (50 mM HEPES (pH=7.4), 10 mM MgCl2, 10 mM NaCl, 1 mM CaCL2, 0.1% BSA, 10 μg/ml Saponin). At this point pre-bound SPA bead, membrane complex was incubated at room temperature for 4 h with varying concentrations of punitive CCR2 antagonists (in 1% DMSO, final) and 0.03 nM ^125I-rhMCP-1 in CCR2Buffer (S.A. 2200 Ci/mmol, PerkinElmer Life and Analytical Science, Boston, Mass.; NEX332). Binding competition was measured using a 1450 Microbeta Trilux counter (Wallac, Gaithersburg, Md.). Binding constants (IC50 and slope) were calculated using GraphPad Prism software (GraphPad Software, Inc., La Jolla Calif.).
# T1 sequence (P41597 whole entry): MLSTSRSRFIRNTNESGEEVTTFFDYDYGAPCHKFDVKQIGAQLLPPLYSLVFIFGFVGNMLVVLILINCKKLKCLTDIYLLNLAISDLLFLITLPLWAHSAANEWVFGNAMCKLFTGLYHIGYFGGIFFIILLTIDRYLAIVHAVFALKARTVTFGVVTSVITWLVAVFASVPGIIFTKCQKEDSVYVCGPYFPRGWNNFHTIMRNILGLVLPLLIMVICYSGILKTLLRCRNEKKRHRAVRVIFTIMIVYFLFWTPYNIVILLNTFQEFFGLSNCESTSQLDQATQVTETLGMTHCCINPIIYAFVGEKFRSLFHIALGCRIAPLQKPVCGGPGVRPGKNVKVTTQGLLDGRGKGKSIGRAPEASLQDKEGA
row,IC50 [µM],SMILES
1,0.0067,Cn1ncc2cc([C@H]3CC[C@@H](N4C[C@@H]5[C@H](C4)[C@H]5C(=O)NCC(=O)Nc4cccc(C(F)(F)F)c4)CC3)ccc21 [Compound 150]
2,0.0045,COc1ncc([C@H]2CC[C@@H](N3C[C@@H]4[C@H](C3)[C@H]4C(=O)NCC(=O)Nc3cccc(C(F)(F)F)c3)CC2)c(OC)n1 [Compound 153]
3,0.0039,O=C(CNC(=O)[C@H]1[C@@H]2CN(C3CCC(O)(c4nccs4)CC3)C[C@@H]21)Nc1cccc(C(F)(F)F)c1 (stereo partly drawn) [Compound 120]
4,0.004,O=C(CNC(=O)[C@H]1[C@@H]2CN([C@H]3CC[C@@H](c4cccnc4)CC3)C[C@@H]21)Nc1cccc(C(F)(F)F)c1 [Compound 82]

# Same assay, conditions: membranes from Ba/F3 cells transfected with human CCR2; 0.03 nM 125I-rhMCP-1; class symbols
SMILES,IC50 [µM],IC50 (nM)
CC1CCCCC1N1C[C@@H]2[C@H](C1)[C@H]2C(=O)NCC(=O)Nc1cccc(C(F)(F)F)c1 (stereo partly drawn) [Compound 31],0.051 to 0.2,–
CC(CCc1ccccc1)N1C[C@@H]2[C@H](C1)[C@H]2C(=O)NCC(=O)Nc1cccc(C(F)(F)F)c1 (stereo partly drawn) [Compound 50],–,D (compounds with IC50 values between 701 nM and 110 nM are designated as D class compounds)
O=C([C@H]1[C@@H]2CN([C@H]3CC[C@@H](c4ccccc4)CC3)C[C@@H]21)N1CC[C@@H](Nc2nccc(C(F)(F)F)n2)C1 [Compound 6],0.051 to 0.2,–
CC(C)N1C[C@@H]2[C@H](C1)[C@H]2C(=O)NCC(=O)Nc1cccc(C(F)(F)F)c1 [Compound 93],0.051 to 0.2,–
O=C1CCC(N2C[C@@H]3[C@H](C2)[C@H]3C(=O)NCC(=O)Nc2cccc(C(F)(F)F)c2)CC1 [Compound 29],–,D (compounds with IC50 values between 701 nM and 110 nM are designated as D class compounds)
CC(C)C1CCC(N2C[C@@H]3[C@H](C2)[C@H]3C(=O)NCC(=O)Nc2cccc(C(F)(F)F)c2)CC1 (stereo partly drawn) [Compound 45],0.201 to 0.7,–
CCC(C)N1C[C@@H]2[C@H](C1)[C@H]2C(=O)NCC(=O)Nc1cccc(C(F)(F)F)c1 (stereo partly drawn) [Compound 9],0.051 to 0.2,–
Cn1cc([C@H]2CC[C@H](N3C[C@@H]4[C@H](C3)[C@H]4C(=O)NCC(=O)Nc3cccc(C(F)(F)F)c3)CC2)cn1 [Compound 96],–,D (compounds with IC50 values between 701 nM and 110 nM are designated as D class compounds)
O=C([C@H]1[C@@H]2CN([C@H]3CC[C@@H](c4ccccc4)CC3)C[C@@H]21)N1CCN(c2cccc(C(F)(F)F)c2)C(=O)C1 [Compound 127],–,D (compounds with IC50 values between 701 nM and 110 nM are designated as D class compounds)
O=C(CNC(=O)[C@H]1[C@@H]2CN(CC3CC3)C[C@@H]21)Nc1cccc(C(F)(F)F)c1 [Compound 158],–,D (compounds with IC50 values between 701 nM and 110 nM are designated as D class compounds)
O=C(CNC(=O)[C@H]1[C@@H]2CN(C3CC[C@H](c4ccccc4)C3)C[C@@H]21)Nc1cccc(C(F)(F)F)c1 (stereo partly drawn) [Compound 64],0.051 to 0.2,–
O=C(CNC(=O)[C@H]1[C@@H]2CN(C3CC[C@@H](c4ccccc4)C3)C[C@@H]21)Nc1cccc(C(F)(F)F)c1 (stereo partly drawn) [Compound 65],0.201 to 0.7,–
O=C(CNC(=O)[C@H]1[C@@H]2CN([C@H]3CC[C@@H](c4cccs4)CC3)C[C@@H]21)Nc1cccc(C(F)(F)F)c1 [Compound 98],< 0.05,–
O=C(NCCc1ccccc1)[C@H]1[C@@H]2CN([C@H]3CC[C@@H](c4ccccc4)CC3)C[C@@H]21 [Compound 10],–,D (compounds with IC50 values between 701 nM and 110 nM are designated as D class compounds)
CC(C)(C)C1CCC(N2C[C@@H]3[C@H](C2)[C@H]3C(=O)NCC(=O)Nc2cccc(C(F)(F)F)c2)CC1 (stereo partly drawn) [Compound 54],–,D (compounds with IC50 values between 701 nM and 110 nM are designated as D class compounds)
O=C(NCCCc1cccc(C(F)(F)F)c1)[C@H]1[C@@H]2CN([C@H]3CC[C@@H](c4ccccc4)CC3)C[C@@H]21 [Compound 62],0.051 to 0.2,–
O=C(CNC(=O)[C@H]1[C@@H]2CN(C3CCC3)C[C@@H]21)Nc1cccc(C(F)(F)F)c1 [Compound 110],0.201 to 0.7,–
O=C([C@H]1[C@@H]2CN([C@H]3CC[C@@H](c4ccccc4)CC3)C[C@@H]21)N1CCC(c2cccc(C(F)(F)F)c2)C1 (stereo partly drawn) [Compound 70],< 0.05,–
FC(F)(F)c1cccc(CN(Cc2cccc(C(F)(F)F)c2)c2nnc([C@H]3[C@@H]4CN([C@H]5CC[C@@H](c6ccccc6)CC5)C[C@@H]43)o2)c1 [Compound 8],0.201 to 0.7,–
O=C([C@H]1[C@@H]2CN([C@H]3CC[C@@H](c4ccccc4)CC3)C[C@@H]21)N1CCC(c2cccc(C(F)(F)F)c2)CC1 [Compound 106],–,D (compounds with IC50 values between 701 nM and 110 nM are designated as D class compounds)
O=C(CNC(=O)[C@H]1[C@@H]2CN(C3CCCCC3)C[C@@H]21)Nc1cccc(C(F)(F)F)c1 [Compound 2],0.051 to 0.2,–
O=C(CNC(=O)[C@H]1[C@@H]2CN(C3CCCCCC3)C[C@@H]21)Nc1cccc(C(F)(F)F)c1 [Compound 33],0.201 to 0.7,–
COC1CCC(N2C[C@@H]3[C@H](C2)[C@H]3C(=O)NCC(=O)Nc2cccc(C(F)(F)F)c2)CC1 (stereo partly drawn) [Compound 39],–,D (compounds with IC50 values between 701 nM and 110 nM are designated as D class compounds)
O=C([C@H]1[C@@H]2CN([C@H]3CC[C@@H](c4ccccc4)CC3)C[C@@H]21)N1CCC(c2ccc(C(F)(F)F)cc2)C1 (stereo partly drawn) [Compound 73],0.051 to 0.2,–

# Continued, in another order:
IC50 [µM],SMILES,IC50 (nM)
0.051 to 0.2,CC(C)(C)OC(=O)N[C@H]1CC[C@@H](N2C[C@@H]3[C@H](C2)[C@H]3C(=O)NCC(=O)Nc2cccc(C(F)(F)F)c2)CC1 [Compound 136],–
0.051 to 0.2,COc1ccc(C[C@H]2CC[C@@H](N3C[C@@H]4[C@H](C3)[C@H]4C(=O)NCC(=O)Nc3cccc(C(F)(F)F)c3)CC2)cc1 [Compound 145],–
0.201 to 0.7,O=C(CNC(=O)[C@H]1[C@@H]2CN(C3CC=C(c4ccc5c(c4)OCO5)CC3)C[C@@H]21)Nc1cccc(C(F)(F)F)c1 (stereo partly drawn) [Compound 139],–
0.201 to 0.7,O=C(CNC(=O)[C@H]1[C@@H]2CN([C@H]3CC[C@@H](c4cnc(O)nc4)CC3)C[C@@H]21)Nc1cccc(C(F)(F)F)c1 [Compound 118],–
0.051 to 0.2,Cn1ncc2cc([C@H]3CC[C@H](N4C[C@@H]5[C@H](C4)[C@H]5C(=O)NCC(=O)Nc4cccc(C(F)(F)F)c4)CC3)ccc21 [Compound 151],–
0.201 to 0.7,COc1ccc(CC2CCCC(N3C[C@@H]4[C@H](C3)[C@H]4C(=O)NCC(=O)Nc3cccc(C(F)(F)F)c3)C2)cc1 (stereo partly drawn) [Compound 146],–
0.201 to 0.7,O=C(CNC(=O)[C@H]1[C@@H]2CN(C3CCC(O)(c4cncs4)CC3)C[C@@H]21)Nc1cccc(C(F)(F)F)c1 (stereo partly drawn) [Compound 123],–
0.201 to 0.7,O=C(N[C@@H]1CCN(c2nccc(C(F)(F)F)n2)C1)[C@H]1[C@@H]2CN([C@H]3CC[C@@H](c4ccccc4)CC3)C[C@@H]21 [Compound 112],–
0.201 to 0.7,O=C([C@H]1[C@@H]2CN([C@H]3CC[C@@H](c4ccccc4)CC3)C[C@@H]21)N1CCC(Nc2nccc(C(F)(F)F)n2)CC1 [Compound 128],–
< 0.05,N#Cc1ccc([C@H]2CC[C@@H](N3C[C@@H]4[C@H](C3)[C@H]4C(=O)NCC(=O)Nc3cccc(C(F)(F)F)c3)CC2)cc1 [Compound 126],–
< 0.05,O=C(CNC(=O)[C@H]1[C@@H]2CN([C@H]3CC[C@@H](c4cc(Br)c(O)c(Br)c4)CC3)C[C@@H]21)Nc1cccc(C(F)(F)F)c1 [Compound 163],–
